# In patent publication US10703735B2, “4-phenyl-coumarin derivatives, processes for their preparation and uses thereof for the treatment of cancer” (Lead Discovery Center GmbH, priority 2018, dated 2020):
# pIC50: −log10 of the molar value.
# Molecular target: mitochondrial RNA-polymerase (POLRMT) (Mus musculus, UniProt Q8BKF1)
# Assay: Homogeneous TR-FRET assay for mitochondrial transcription activity
# Assay type: biochemical
# Conditions: homogeneous TR-FRET assay according to Example 4; read-out: mitochondrial transcription activity (IC-50)
# Excerpt: The TR-FRET assay was basically conducted as described in WO 2016/193231A1, especially as described in example 1 (hereby incorporated by reference). With respect to the background of the mitochondrial transcription it is referred to Falkenberg et al. (2002) and Posse et al. (Posse et al. 2015). The method monitors the activity of mitochondrial RNA-polymerase via detection of the formation of its product, a 407 bp long RNA sequence. Detection of the product is facilitated by hybridization of two DNA-oligonucleotide probes to specific and adjacent sequences within the RNA product sequence. Upon annealing of the probes, two fluorophores that are coupled directly to an acceptor nucleotide probe (ATT0647, 5′) or introduced via a coupled streptavidin interacting with a biotinylated donor nucleotide probe on the other side (Europium cryptate, 3) are brought into sufficient proximity to serve as a fluorescence-donor-acceptor pair as generally described in Walters and Namchuk (2003). Thus, a FRET signal at 665 nm is generated upon excitation at 340 nm.
# Briefly, the protocol described here was applied for screening and activity determination in a low-volume 384-well microtiter plate with non-binding surface. For high-throughput application in the 1536-well microtiter plate format, volumes of the reagent mixes were adjusted, maintaining the volumetric ratio. Proteins POLRMT (NM_172551.3), TFAM (NM_009360.4) and TFB2M (NM_008249.4) were diluted from their stocks to working concentrations of 150 nM, 1.8 μM and 330 nM respectively, in a dilution buffer containing 100 mM Tris-HCl pH 8.0, 200 mM NaCl, 10% (v/v) glycerole, 2 mM glutathione (GSH), 0.5 mM EDTA and 0.1 mg/mL BSA. Protein dilutions and template DNA, comprising a pUC18 plasmid encoding the mitochondrial light strand promoter, restriction linearized proximal to the promoter 3′-end (pUC-LSP), were mixed at the twofold final assay-concentration in a reaction buffer, containing 10 mM Tris-HCl pH 7.5, 10 mM MgCl2, 40 mM NaCl, 2 mM GSH, 0.01% (w/v) Tween-20 and 0.1 mg/mL BSA.
# 5 μL of this mix were dispensed, depending on the chosen microtiter plate format, using multi-channel pipettes or a Multidrop® dispenser (Thermo Fisher Scientific, Waltham Mass.) into the wells of a microtiter plate and incubated at room temperature (RT) for 10 min. Chemical compounds under scrutiny in the assay were applied using contact-free acoustic droplet-dispensing (Echo520® Labcyte Inc., Sunnyvale Calif.) from 10 mM compound stocks in 100% DMSO, to a final concentration of 10 μM or in serial dilution series of the required concentration range. Equal amounts of DMSO without any compound were added to positive control samples, followed by an incubation step at RT for 10 min.
# The enzymatic reaction was started by the addition of 5 μL of a mix of dNTPs in reaction buffer to a final concentration of 500 μM each. No nucleotide mix was added to negative control samples. The content of the wells was mixed using a VarioTeleshaker™ (Thermo Fisher Scientific, Waltham Mass.) at 1500 rpm for 45 sec after which the microtiter plate was centrifuged at 500×g for 1 min. The samples were incubated for 2 h at RT with humidity control to avoid evaporation. The detection reagents were prepared in a buffer that was composed, such that the enzymatic reaction was terminated due to chelating of Mg-ions and increased ionic strength, containing 50 mM Tris-HCl pH 7.5, 700 mM NaCl, 20 mM EDTA, and 0.01% (w/v) Tween-20. Importantly Eu-cryptate-coupled streptavidin had to be preincubated with a 100-fold molar excess of a random sequence oligonucleotide for 10 min at RT in the dark to block unspecific binding of single stranded RNA to the protein. Subsequently, the blocked streptavidin(-Eu) was mixed with the DNA-probes on ice and kept away from light until use. […]
# Chain of mitochondrial RNA-polymerase (POLRMT) (Q8BKF1 42-1207): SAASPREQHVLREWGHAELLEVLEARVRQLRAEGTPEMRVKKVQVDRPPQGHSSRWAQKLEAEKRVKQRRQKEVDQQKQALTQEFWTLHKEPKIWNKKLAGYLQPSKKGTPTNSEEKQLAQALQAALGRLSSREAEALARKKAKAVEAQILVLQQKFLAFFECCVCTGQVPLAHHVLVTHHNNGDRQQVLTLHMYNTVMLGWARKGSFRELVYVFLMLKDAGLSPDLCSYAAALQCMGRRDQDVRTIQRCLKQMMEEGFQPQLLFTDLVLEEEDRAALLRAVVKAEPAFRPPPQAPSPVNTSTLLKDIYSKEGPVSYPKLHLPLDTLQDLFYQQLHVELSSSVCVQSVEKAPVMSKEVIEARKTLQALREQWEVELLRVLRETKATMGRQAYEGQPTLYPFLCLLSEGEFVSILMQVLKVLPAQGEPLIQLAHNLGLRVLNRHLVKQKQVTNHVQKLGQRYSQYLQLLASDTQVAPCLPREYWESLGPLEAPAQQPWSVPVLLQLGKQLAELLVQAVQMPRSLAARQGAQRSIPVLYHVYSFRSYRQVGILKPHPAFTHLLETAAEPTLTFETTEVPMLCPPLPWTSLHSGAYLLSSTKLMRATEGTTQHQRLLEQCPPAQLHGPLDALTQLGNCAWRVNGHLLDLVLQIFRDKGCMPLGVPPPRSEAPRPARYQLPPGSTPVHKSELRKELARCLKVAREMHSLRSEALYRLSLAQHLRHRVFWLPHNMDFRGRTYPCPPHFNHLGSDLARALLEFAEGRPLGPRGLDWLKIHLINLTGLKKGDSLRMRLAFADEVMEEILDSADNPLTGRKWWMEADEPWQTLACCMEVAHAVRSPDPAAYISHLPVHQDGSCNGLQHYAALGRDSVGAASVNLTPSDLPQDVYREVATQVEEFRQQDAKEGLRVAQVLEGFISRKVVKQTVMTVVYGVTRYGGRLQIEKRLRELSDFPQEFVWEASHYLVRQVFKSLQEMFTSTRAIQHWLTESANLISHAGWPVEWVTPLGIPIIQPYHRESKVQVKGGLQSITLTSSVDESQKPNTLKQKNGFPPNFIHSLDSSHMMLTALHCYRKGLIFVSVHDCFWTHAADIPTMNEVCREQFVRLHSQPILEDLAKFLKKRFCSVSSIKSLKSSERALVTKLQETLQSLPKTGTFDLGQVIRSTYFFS
row,pIC50,SMILES
1,5.00 to 6.00,"CCOC(=O)[C@H]1CCCN(C(=O)C(C)Oc2ccc3c(-c4ccccc4)cc(=O)oc3c2)C1 (mixture of isomers) [Compound 64, ethyl rac-(3S)-1-[2-(2-oxo-4-phenyl-chromen-7-yl)oxypropanoyl]piperidine-3-carboxylate]"
2,5.00 to 6.00,"CC(Oc1ccc2c(-c3ccccc3)cc(=O)oc2c1)C(=O)N1CCC[C@H](C(=O)N(C)C)C1 (mixture of isomers) [Compound 68, rac-(3S)-N,N-dimethyl-1-[2-(2-oxo-4-phenyl-chromen-7-yl)oxpropanoyl]piperidine-3-carboxamide]"
3,6.00 to 7.00,"CCOC(=O)C(C)Oc1ccc2c(-c3ccc(Cl)cc3)cc(=O)oc2c1 (stereo not drawn) [Compound 3, ethyl 2-[4-(4-chlorophenyl)-2-oxo-chromen-7-yl]oxypropanoate]"
4,6.00 to 7.00,"CCOC(=O)C(C)Oc1ccc2c(-c3cccc(Cl)c3)cc(=O)oc2c1 (stereo not drawn) [Compound 4, ethyl 2-[4-(3-chlorophenyl)-2-oxo-chromen-7-yl]oxypropanoate]"
5,6.00 to 7.00,"CC(Oc1ccc2c(-c3ccccc3)cc(=O)oc2c1)C(=O)Nc1ccc(CCCO)cc1 (stereo not drawn) [Compound 5, N-[4-(3-hydroxypropyl)phenyl]-2-(2-oxo-4-phenyl-chromen-7-yl)oxy-propanamide]"
6,6.00 to 7.00,"CC(Oc1ccc2c(-c3ccccc3)cc(=O)oc2c1)C(=O)Nc1ccccn1 (stereo not drawn) [Compound 6, 2-(2-oxo-4-phenyl-chromen-7-yl)oxy-N-(2-pyridyl)propanamide]"
7,6.00 to 7.00,"CCOC(=O)C(C)Oc1ccc2c(-c3ccc(F)cc3)cc(=O)oc2c1 (stereo not drawn) [Compound 8, ethyl 2-[4-(4-fluorophenyl)-2-oxo-chromen-7-yl]oxypropanoate]"
8,6.00 to 7.00,"CCOC(=O)C(C)Oc1ccc2c(-c3ccc(C)cc3)cc(=O)oc2c1 (stereo not drawn) [Compound 9, ethyl 2-[2-oxo-4-(p-tolyl)chromen-7-yl]oxypropanoate]"
9,6.00 to 7.00,"COC(=O)C1CCCN(C(=O)C(C)Oc2cc3oc(=O)cc(-c4ccccc4)c3cc2Cl)C1 (stereo not drawn) [Compound 10, methyl 1-[2-(6-chloro-2-oxo-4-phenyl-chromen-7-yl)oxypropanoyl]piperidine-3-carboxylate]"
10,6.00 to 7.00,"CC(Oc1cc2oc(=O)cc(-c3ccccc3)c2cc1Cl)C(=O)Nc1ccccn1 (stereo not drawn) [Compound 11, 2-(6-chloro-2-oxo-4-phenyl-chromen-7-yl)oxy-N-(2-pyridyl)propanamide]"
11,6.00 to 7.00,"CC(Oc1cc2oc(=O)cc(-c3ccccc3)c2cc1Cl)C(=O)N1CCCC(C(=O)O)C1 (stereo not drawn) [Compound 13, 1-[2-(6-chloro-2-oxo-4-phenyl-chromen-7-yl)oxypropanoyl]piperidine-3-carboxylic acid]"
12,6.00 to 7.00,"CC(Oc1ccc2c(-c3ccccc3)cc(=O)oc2c1)C(=O)N1CCCC(C(=O)O)C1 (stereo not drawn) [Compound 14, 1-[2-(2-oxo-4-phenyl-chromen-7-yl)oxypropanoyl]piperidine-3-carboxylic acid]"
13,6.00 to 7.00,"CC(Oc1ccc2c(-c3ccccc3)cc(=O)oc2c1)C(=O)Nc1ccc(CCO)cc1 (stereo not drawn) [Compound 16, N-[4-(2-hydroxyethyl)phenyl]-2-(2-oxo-4-phenyl-chromen-7-yl)oxy-propanamide]"
14,6.00 to 7.00,"CC(Oc1cc2oc(=O)cc(-c3ccccc3)c2cc1Cl)C(=O)Nc1ccc(CCO)cc1 (stereo not drawn) [Compound 17, 2-(6-chloro-2-oxo-4-phenyl-chromen-7-yl)oxy-N-[4-(2-hydroxyethyl)phenyl]propanamide]"
15,6.00 to 7.00,"CC(Oc1ccc2c(-c3ccccc3)cc(=O)oc2c1)C(=O)N(C)c1ccc(CCO)cc1 (stereo not drawn) [Compound 18, N-[4-(2-hydroxyethyl)phenyl]-N-methyl-2-(2-oxo-4-phenyl-chromen-7-yl)oxy-propanamide]"
16,> 7.70,"CC(Oc1ccc2c(-c3ccccc3)cc(=O)oc2c1)C(=O)N1CCCC(c2nn[nH]n2)C1 (stereo not drawn) [Compound 20, 7-[1-methyl-2-oxo-2-[3-(2H-tetrazol-5-yl)-1-piperidyl]ethoxy]-4-phenyl-chromen-2-one]"
17,6.00 to 7.00,"C[C@@H](Oc1ccc2c(-c3ccccc3)cc(=O)oc2c1)C(=O)N1CCC[C@H](C(=O)O)C1 [Compound 21, (3S)-1-[(2R)-2-(2-oxo-4-phenyl-chromen-7-yl)oxypropanoyl]piperidine-3-carboxylic acid]"
18,6.00 to 7.00,"O=C(COc1ccc2c(-c3ccccc3)cc(=O)oc2c1)Nc1ccccn1 [Compound 22, 2-(2-oxo-4-phenyl-chromen-7-yl)oxy-N-(2-pyridyl)acetamide]"
19,5.00 to 6.00,"COC(=O)C1CCCN(C(=O)COc2ccc3c(-c4ccccc4)cc(=O)oc3c2)C1 (stereo not drawn) [Compound 23, methyl 1-[2-(2-oxo-4-phenyl-chromen-7-yl)oxyacetyl]piperidine-3-carboxylate]"
20,5.00 to 6.00,"CC(Oc1ccc2c(-c3ccccc3)cc(=O)oc2c1)C(=O)Oc1ccccc1 (stereo not drawn) [Compound 24, phenyl 2-(2-oxo-4-phenyl-chromen-7-yl)oxypropanoate]"
21,6.00 to 7.00,"CC(Oc1ccc2c(-c3ccccc3)cc(=O)oc2c1)C(=O)Nc1ccccc1 (stereo not drawn) [Compound 25, 2-(2-oxo-4-phenyl-chromen-7-yl)oxy-N-phenyl-propanamide]"
22,6.00 to 7.00,"CNC(=O)C(C)Oc1ccc2c(-c3ccccc3)cc(=O)oc2c1 (stereo not drawn) [Compound 26, N-methyl-2-(2-oxo-4-phenyl-chromen-7-yl)oxy-propanamide]"
23,5.00 to 6.00,"CC(Oc1cc2oc(=O)cc(-c3ccccc3)c2cc1Cl)C(=O)NCC(O)c1ccccc1 (stereo not drawn) [Compound 27, 2-(6-chloro-2-oxo-4-phenyl-chromen-7-yl)oxy-N-(2-hydroxy-2-phenyl-ethyl)propanamide]"
24,6.00 to 7.00,"CC(Oc1cc2oc(=O)cc(-c3ccccc3)c2cc1Cl)C(=O)Nc1ccc(CCCO)cc1 (stereo not drawn) [Compound 28, 2-(6-chloro-2-oxo-4-phenyl-chromen-7-yl)oxy-N-[4-(3-hydroxypropyl)phenyl]propanamide]"
25,5.00 to 6.00,"CC(Oc1ccc2c(-c3ccccc3)cc(=O)oc2c1)C(=O)NCC(O)c1ccccc1 (stereo not drawn) [Compound 29, N-(2-hydroxy-2-phenyl-ethyl)-2-(2-oxo-4-phenyl-chromen-7-yl)oxy-propanamide]"
26,6.00 to 7.00,"CCOC(=O)[C@H]1CCCN(C(=O)[C@@H](C)Oc2ccc3c(-c4ccccc4)cc(=O)oc3c2)C1 [Compound 35, ethyl (3S)-1-[(2R)-2-(2-oxo-4-phenyl-chromen-7-yl)oxypropanoyl]piperidine-3-carboxylate]"
27,6.00 to 7.00,"CC(Oc1ccc2c(-c3ccccc3)cc(=O)oc2c1)C(=O)N1CCC[C@H](C(=O)O)C1 (stereo partly drawn) [Compound 36, (3S)-1-[2-(2-oxo-4-phenyl-chromen-7-yl)oxypropanoyl]piperidine-3-carboxylic acid]"
28,5.00 to 6.00,"CC(Oc1ccc2c(-c3ccccc3)cc(=O)oc2c1)C(=O)N1CCC[C@@H](C(=O)O)C1 (stereo partly drawn) [Compound 37, (3R)-1-[2-(2-oxo-4-phenyl-chromen-7-yl)oxypropanoyl]piperidine-3-carboxylic acid]"
29,5.00 to 6.00,"COC(=O)[C@@H]1CCCN(C(=O)C(C)Oc2ccc3c(-c4ccccc4)cc(=O)oc3c2)C1 (stereo partly drawn) [Compound 38, methyl (3R)-1-[2-(2-oxo-4-phenyl-chromen-7-yl)oxypropanoyl]piperidine-3-carboxylate]"
30,6.00 to 7.00,"CC(Oc1ccc2c(-c3ccccc3)cc(=O)oc2c1)C(=O)N1CCCCC1 (stereo not drawn) [Compound 39, 7-[1-methyl-2-oxo-2-(1-piperidyl)ethoxy]-4-phenyl-chromen-2-one]"
